Measured values as given in ChEMBL document CHEMBL1909046, “DrugMatrix in vitro pharmacology data”.
pIC50, pKi: −log10 of the molar value.

Assays:
[1] = DRUGMATRIX: Glutamate, AMPA radioligand binding (ligand: [3H] AMPA); format: cell membranes, Rattus norvegicus, Wistar, Cerebral cortex, Membrane; conditions: Not Active = under 50% inhibition at 10 µM
[2] = target: Mitogen-activated protein kinase 3 (Homo sapiens, UniProt P27361); experiment: DRUGMATRIX: Protein Serine/Threonine Kinase, ERK1 enzyme inhibition (substrate: Myelin Basic Protein); set-up: species or system Escherichia coli; conditions: Not Active = under 50% inhibition at 10 µM
[3] = target: Beta-3 adrenergic receptor (Homo sapiens, UniProt P13945); experiment: DRUGMATRIX: Adrenergic beta3 radioligand binding (ligand: [125I] Cyanopindolol); format: cell membranes, HEK293, Membrane; conditions: hek293; Not Active = under 50% inhibition at 10 µM
[4] = target: T1, Neuropeptide Y receptor type 2 (Homo sapiens, UniProt P49146); format: cell membranes, Membrane; conditions: kan-ts; also: in other assays of this panel Not Active means under 50% inhibition at 10 µM
T1 sequence (P49146 whole entry): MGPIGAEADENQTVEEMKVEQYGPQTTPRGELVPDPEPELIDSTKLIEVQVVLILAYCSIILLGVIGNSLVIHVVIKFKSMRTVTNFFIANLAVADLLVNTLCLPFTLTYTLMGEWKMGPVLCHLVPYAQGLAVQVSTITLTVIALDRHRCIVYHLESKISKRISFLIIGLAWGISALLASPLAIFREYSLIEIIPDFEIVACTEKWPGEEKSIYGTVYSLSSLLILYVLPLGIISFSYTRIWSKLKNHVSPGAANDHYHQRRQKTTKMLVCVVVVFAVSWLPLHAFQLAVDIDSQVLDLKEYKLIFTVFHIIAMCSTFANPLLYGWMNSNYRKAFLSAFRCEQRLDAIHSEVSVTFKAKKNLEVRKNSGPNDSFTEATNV

[5] = target: T2, Alpha-1D adrenergic receptor (Homo sapiens, UniProt P25100); format: cell membranes, HEK293, Membrane; conditions: hek293; also: in other assays of this panel Not Active means under 50% inhibition at 10 µM
T2 sequence (P25100 whole entry): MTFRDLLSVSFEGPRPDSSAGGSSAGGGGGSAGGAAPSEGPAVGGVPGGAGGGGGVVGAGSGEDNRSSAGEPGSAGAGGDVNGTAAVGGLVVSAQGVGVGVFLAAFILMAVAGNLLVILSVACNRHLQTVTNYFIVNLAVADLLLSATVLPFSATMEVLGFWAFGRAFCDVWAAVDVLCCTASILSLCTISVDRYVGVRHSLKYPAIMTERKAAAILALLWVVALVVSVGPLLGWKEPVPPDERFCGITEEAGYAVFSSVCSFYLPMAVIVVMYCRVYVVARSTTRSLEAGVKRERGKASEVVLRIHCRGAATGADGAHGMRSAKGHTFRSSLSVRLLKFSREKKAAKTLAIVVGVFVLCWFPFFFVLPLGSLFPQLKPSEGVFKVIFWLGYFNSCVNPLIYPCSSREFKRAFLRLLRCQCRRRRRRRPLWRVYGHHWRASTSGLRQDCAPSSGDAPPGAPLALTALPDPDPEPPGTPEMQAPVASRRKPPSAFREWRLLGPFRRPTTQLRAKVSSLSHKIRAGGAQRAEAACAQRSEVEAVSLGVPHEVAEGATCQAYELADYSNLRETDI

[6] = target: T3, Glucocorticoid receptor (Homo sapiens, UniProt P04150); conditions: hela s3; also: in other assays of this panel Not Active means under 50% inhibition at 10 µM
T3 sequence (P04150 whole entry): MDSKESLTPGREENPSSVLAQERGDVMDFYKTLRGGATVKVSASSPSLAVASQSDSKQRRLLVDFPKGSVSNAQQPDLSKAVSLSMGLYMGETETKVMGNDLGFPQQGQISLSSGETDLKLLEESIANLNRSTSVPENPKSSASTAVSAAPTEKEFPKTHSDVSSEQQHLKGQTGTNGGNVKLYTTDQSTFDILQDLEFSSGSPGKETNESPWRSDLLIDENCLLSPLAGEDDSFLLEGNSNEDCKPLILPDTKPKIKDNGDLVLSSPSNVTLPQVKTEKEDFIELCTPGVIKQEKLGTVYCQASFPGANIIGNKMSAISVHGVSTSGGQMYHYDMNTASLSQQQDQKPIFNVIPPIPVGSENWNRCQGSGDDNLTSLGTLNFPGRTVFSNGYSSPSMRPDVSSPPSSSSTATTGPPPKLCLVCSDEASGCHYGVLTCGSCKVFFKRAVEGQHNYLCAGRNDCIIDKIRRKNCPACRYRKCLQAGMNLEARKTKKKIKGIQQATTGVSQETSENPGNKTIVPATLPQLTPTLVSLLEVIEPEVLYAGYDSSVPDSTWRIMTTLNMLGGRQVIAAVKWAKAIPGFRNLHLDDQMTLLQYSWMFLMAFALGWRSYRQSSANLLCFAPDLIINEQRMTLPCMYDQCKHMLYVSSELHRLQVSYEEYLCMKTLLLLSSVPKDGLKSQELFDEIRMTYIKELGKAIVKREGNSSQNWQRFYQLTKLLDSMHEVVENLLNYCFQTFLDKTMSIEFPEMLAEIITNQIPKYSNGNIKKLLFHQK

[7] = target: Vasopressin V1a receptor (Homo sapiens, UniProt P37288); format: cell membranes, Membrane; conditions: hek293; also: in other assays of this panel Not Active means under 50% inhibition at 10 µM
[8] = target: T4, Alpha-1B adrenergic receptor (Rattus norvegicus, UniProt P15823); experiment: DRUGMATRIX: Alpha-1B adrenergic receptor radioligand binding (ligand: prazosin); format: cell membranes, Wistar, Liver, Membrane; conditions: Not Active = under 50% inhibition at 10 µM
T4 sequence (P15823 whole entry): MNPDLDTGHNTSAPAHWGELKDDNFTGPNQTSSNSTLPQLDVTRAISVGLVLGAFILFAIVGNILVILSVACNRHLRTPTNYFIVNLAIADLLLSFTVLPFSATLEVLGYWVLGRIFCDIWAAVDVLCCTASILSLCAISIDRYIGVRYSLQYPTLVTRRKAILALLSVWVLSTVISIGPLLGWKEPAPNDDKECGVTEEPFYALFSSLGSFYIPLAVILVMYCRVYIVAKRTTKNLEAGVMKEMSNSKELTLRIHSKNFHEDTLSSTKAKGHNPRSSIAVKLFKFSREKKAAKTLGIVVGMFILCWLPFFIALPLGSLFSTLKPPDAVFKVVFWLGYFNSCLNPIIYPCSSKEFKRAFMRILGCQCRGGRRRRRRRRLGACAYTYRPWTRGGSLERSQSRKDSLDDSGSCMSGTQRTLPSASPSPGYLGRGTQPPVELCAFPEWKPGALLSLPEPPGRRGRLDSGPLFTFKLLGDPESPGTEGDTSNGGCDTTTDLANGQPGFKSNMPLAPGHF

[9] = target: Receptor tyrosine-protein kinase erbB-2 (Homo sapiens, UniProt P04626); experiment: biochemical; format: cell-based, Insect cells; conditions: for IC50 / Ki: insect cells
[10] = target: 5-hydroxytryptamine receptor 2B (Homo sapiens, UniProt P41595); format: cell membranes, CHO-K1, Membrane; conditions: for IC50 / Ki: cho-k1
[11] = target: Tyrosine-protein kinase Lck (Homo sapiens, UniProt P06239); experiment: DRUGMATRIX: Protein Tyrosine Kinase, LCK enzyme inhibition (substrate: Poly(Glu:Tyr)); format: cell-based, Insect cells; conditions: insect cells, Not Active = under 50% inhibition at 10 µM
[12] = DRUGMATRIX: GABAA, Chloride Channel, TBOB radioligand binding (ligand: [3H] TBOB); format: cell membranes, Rattus norvegicus, Wistar, Cerebral cortex, Membrane; conditions: Not Active = under 50% inhibition at 10 µM

Sequence of Beta-3 adrenergic receptor (P13945 whole entry): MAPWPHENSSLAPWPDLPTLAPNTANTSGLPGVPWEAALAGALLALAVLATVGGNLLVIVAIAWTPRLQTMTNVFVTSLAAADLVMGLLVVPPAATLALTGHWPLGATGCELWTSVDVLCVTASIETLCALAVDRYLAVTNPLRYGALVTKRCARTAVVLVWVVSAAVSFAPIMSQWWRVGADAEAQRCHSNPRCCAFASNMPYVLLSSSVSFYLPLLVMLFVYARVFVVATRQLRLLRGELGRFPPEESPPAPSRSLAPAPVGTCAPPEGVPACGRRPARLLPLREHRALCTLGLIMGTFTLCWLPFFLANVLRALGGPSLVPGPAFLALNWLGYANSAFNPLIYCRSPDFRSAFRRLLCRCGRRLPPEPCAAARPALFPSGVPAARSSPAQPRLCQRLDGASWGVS
Sequence of 5-hydroxytryptamine receptor 2B (P41595 whole entry): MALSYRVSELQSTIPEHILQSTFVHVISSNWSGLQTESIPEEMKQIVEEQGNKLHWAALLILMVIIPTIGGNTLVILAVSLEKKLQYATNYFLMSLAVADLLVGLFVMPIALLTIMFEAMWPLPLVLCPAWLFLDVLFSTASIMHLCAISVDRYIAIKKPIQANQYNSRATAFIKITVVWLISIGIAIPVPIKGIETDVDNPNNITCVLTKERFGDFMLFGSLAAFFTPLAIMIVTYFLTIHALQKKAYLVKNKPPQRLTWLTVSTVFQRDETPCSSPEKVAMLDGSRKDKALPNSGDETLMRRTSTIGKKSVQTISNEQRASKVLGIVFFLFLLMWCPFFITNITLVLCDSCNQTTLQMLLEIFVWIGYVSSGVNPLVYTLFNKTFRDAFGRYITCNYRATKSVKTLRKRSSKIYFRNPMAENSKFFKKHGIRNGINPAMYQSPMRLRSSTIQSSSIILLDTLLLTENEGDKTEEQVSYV
Sequence of Tyrosine-protein kinase Lck (P06239 whole entry): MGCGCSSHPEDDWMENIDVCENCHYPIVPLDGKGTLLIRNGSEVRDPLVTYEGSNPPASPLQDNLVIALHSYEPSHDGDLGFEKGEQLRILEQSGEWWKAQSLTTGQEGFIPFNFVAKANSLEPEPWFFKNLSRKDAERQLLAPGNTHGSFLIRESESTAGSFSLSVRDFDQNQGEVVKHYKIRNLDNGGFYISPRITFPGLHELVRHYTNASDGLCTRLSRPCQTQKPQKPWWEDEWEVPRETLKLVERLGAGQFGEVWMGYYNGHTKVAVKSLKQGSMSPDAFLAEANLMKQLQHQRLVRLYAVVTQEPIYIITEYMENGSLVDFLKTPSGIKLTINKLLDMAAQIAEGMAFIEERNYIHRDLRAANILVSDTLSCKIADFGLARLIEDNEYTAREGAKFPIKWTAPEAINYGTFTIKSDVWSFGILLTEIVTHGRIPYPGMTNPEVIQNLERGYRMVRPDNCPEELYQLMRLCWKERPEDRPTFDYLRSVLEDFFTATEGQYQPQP
Sequence of Vasopressin V1a receptor (P37288 whole entry): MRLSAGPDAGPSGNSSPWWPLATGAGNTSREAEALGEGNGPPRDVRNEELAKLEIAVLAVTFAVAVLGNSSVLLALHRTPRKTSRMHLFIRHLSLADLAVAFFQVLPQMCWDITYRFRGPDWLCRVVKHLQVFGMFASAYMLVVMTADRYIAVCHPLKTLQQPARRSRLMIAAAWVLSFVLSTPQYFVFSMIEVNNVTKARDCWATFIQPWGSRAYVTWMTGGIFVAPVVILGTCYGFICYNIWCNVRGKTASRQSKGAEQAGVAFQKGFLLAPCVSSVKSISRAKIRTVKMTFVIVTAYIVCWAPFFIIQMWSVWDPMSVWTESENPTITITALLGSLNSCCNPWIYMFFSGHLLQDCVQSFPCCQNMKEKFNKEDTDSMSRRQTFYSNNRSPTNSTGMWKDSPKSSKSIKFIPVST
Sequence of Mitogen-activated protein kinase 3 (P27361 whole entry): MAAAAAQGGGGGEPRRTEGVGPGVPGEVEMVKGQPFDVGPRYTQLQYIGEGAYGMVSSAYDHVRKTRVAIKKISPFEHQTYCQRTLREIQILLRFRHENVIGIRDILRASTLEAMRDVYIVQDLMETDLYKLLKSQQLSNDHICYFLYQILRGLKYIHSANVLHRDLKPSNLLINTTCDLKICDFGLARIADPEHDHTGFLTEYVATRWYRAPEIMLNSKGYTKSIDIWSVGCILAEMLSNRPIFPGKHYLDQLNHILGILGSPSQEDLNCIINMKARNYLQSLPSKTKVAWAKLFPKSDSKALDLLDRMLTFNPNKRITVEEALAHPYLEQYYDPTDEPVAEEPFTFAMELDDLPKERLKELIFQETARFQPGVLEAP

Compound	IC50 [1]	Ki [1]	IC50 [2]	IC50 [3]	IC50 [4]	IC50 [5]	IC50 [6]	IC50 [7]	IC50 [8]	IC50 [9]	IC50 [10]	IC50 [11]	IC50 [12]	Ki [12]	Ki [3]	Ki [4]	Ki [5]	Ki [6]	Ki [7]	Ki [8]	further results
C=C1C(=O)O[C@@H]2C3O[C@]3(C)CC/C=C(\C)CC[C@@H]12 (stereo not given in full)	Not Active	Not Active	Not Active	Not Active	Not Active	Not Active	Not Active	Not Active	Not Active	Not Active	Not Active	Not Active	Not Active	Not Active	–	–	–	–	–	–	–
C=C(C)[C@@H]1[C@H]2OC(=O)[C@@H]1[C@]1(O)C[C@H]3O[C@]34C(=O)O[C@H]2[C@]14C [PICROTOXININ]	Not Active	Not Active	Not Active	Not Active	Not Active	Not Active	Not Active	Not Active	Not Active	Not Active	Not Active	Not Active	–	–	–	–	–	–	–	–	pIC50 ([12]; read-out: IC50): 6.43; pKi ([12]; read-out: Ki): 6.48
CARBOPLATIN	Not Active	Not Active	Not Active	Not Active	Not Active	Not Active	Not Active	Not Active	Not Active	Not Active	Not Active	Not Active	Not Active	Not Active	Not Active	Not Active	Not Active	Not Active	Not Active	Not Active	Ki [2]: Not Active; Ki [9]: Not Active; Ki [10]: Not Active; Ki [11]: Not Active
c1ccc2c(c1)cc1ccc3cccc4ccc2c1c34	Not Active	Not Active	Not Active	Not Active	Not Active	Not Active	Not Active	Not Active	Not Active	–	Not Active	Not Active	Not Active	Not Active	–	–	–	–	–	–	pIC50 ([9]; read-out: IC50): 4.38
CCCCOC(=O)c1ccc(N)cc1 [BUTAMBEN]	Not Active	Not Active	Not Active	Not Active	Not Active	Not Active	Not Active	Not Active	Not Active	Not Active	Not Active	Not Active	Not Active	Not Active	–	–	–	–	–	–	–
CC[C@@]1(O)C(=O)OCc2c1cc1n(c2=O)Cc2cc3ccccc3nc2-1 [CAMPTOTHECIN]	Not Active	Not Active	Not Active	Not Active	Not Active	Not Active	Not Active	Not Active	Not Active	Not Active	–	Not Active	Not Active	Not Active	–	–	–	–	–	–	pIC50 ([10]; read-out: IC50): 6.01; pKi ([10]; read-out: Ki): 6.21
CISPLATIN	Not Active	Not Active	–	Not Active	Not Active	Not Active	Not Active	Not Active	Not Active	Not Active	Not Active	–	Not Active	Not Active	Not Active	Not Active	Not Active	Not Active	Not Active	Not Active	pIC50 ([2]; read-out: IC50): 5.33; Ki [9]: Not Active; Ki [10]: Not Active; pIC50 ([11]; read-out: IC50): 4.64
OXALIPLATIN	Not Active	Not Active	Not Active	Not Active	Not Active	Not Active	Not Active	Not Active	Not Active	Not Active	Not Active	Not Active	Not Active	Not Active	Not Active	Not Active	Not Active	Not Active	Not Active	Not Active	Ki [2]: Not Active; Ki [9]: Not Active; Ki [10]: Not Active; Ki [11]: Not Active
NCC(=O)O [GLYCINE]	Not Active	Not Active	Not Active	Not Active	Not Active	Not Active	Not Active	Not Active	Not Active	Not Active	Not Active	Not Active	Not Active	Not Active	–	–	–	–	–	–	–
